{
  "source": "patent US9469613B2",
  "about": "“(N-(cyanomethyl)-4-(2-(4-morpholinophenylamino)pyrimidin-4-yl)benzamide” (Gilead Sciences, Inc., priority 2014, dated 2016)",
  "key": {"[1]": {"tested_on": "hepcidin production in HepG2 cells", "assay": "BMP6-mediated hepcidin induction in HepG2 cells (qRT-PCR)", "format": "cell-based", "conditions": "for hepcidin fold-change induction (normalized percentage): HepG2, 10 ng/mL BMP6 6 hours, 100% = vehicle", "description": "This study characterized the effect of CYT-0387 on hepcidin production in HepG2 cells, a hepatocellular carcinoma cell line. Bone morphogenic proteins (BMPs) is shown to be involved in the transcriptional induction of hepcidin in hepatocytes by facilitating the association of constitutively active Type-II BMP receptor kinases (BMPR-kinase) with Type-I BMPR-kinase (Andriopoulos, et al. Nat Genet, 2009. 41(4): p482-7; Zhao, et al., J Clin Invest, 2013. 123(6): p2337-43).\nHepG2 cells were preincubated for 2 hours with CYT-0387 (ranging from 0 μM to 10 μM) in the presence of 1% FBS then stimulated for 6 hours with 10 ng/mL of BMP6. Total RNA was isolated from the cells and analyzed for the levels of hepcidin by qRT-PCR. GUSB (glucuronidase, beta) was used as a house keeping control to normalize the levels measured by qRT-PCR. The percentage of hepcidin fold-change induction was calculated (100% is equal to hepcidin induction in vehicle treated cells) and summarized in Table 9."}, "TGFBR1": {"biological_target": "TGFBR1 (Homo sapiens (Human), UniProt P36897)", "sequence (P36897 34-503)": "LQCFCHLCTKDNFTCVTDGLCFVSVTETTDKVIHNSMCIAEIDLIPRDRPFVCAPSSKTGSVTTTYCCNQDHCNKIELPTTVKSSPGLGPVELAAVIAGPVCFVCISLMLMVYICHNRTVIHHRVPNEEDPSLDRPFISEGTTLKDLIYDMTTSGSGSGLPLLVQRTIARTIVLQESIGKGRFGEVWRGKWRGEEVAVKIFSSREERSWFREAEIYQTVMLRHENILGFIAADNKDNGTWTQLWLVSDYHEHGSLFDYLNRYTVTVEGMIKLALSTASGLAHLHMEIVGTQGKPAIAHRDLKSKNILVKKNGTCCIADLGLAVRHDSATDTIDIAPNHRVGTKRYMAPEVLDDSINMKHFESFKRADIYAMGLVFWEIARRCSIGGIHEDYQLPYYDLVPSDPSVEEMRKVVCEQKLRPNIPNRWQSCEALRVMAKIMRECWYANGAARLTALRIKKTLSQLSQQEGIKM", "assay": "In vitro enzyme inhibition assay (LanthaScreen)", "format": "biochemical", "conditions": "TGFBR1, n = 3"}, "[2]": {"tested_on": "hyperproliferative diseases (PV, ET, PMF), myelofibrosis", "conditions": "cited from earlier work"}, "ALK6 (BMPR1B)": {"biological_target": "ALK6 (BMPR1B) (Homo sapiens (Human), UniProt O00238)", "sequence (O00238 14-502)": "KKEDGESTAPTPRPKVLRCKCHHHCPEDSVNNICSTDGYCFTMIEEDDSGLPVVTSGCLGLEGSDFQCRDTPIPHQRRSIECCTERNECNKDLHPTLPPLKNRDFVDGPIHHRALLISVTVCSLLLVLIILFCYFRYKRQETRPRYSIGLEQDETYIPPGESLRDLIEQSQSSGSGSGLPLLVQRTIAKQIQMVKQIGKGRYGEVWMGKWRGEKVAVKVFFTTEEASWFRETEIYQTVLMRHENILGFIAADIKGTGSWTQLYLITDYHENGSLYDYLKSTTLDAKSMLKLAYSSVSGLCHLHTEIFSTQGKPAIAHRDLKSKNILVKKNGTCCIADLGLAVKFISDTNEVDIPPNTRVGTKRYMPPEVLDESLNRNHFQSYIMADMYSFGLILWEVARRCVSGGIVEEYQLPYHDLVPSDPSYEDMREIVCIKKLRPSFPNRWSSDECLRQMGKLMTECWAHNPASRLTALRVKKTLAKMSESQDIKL", "assay": "Biochemical binding assay (DiscoveRx)", "description": "In addition, biochemical binding assays (DiscoveRx) and in vitro enzyme inhibition assays (LanthaScreen, Life Technologies) were conducted to determine the binding affinity and inhibition activities of CYT-0387 to Type-I BMPR-kinases (ALK2, ALK3, and ALK6) were conducted. Transforming growth factor beta receptor 1 (TGFBR1, ALK5) was used as a control to determine the selectivity to Type-I BMPR-kinases."}, "[3]": {"assay": "Mass balance/recovery, metabolite profile, pharmacokinetics and safety of radiolabeled CYT-0387", "format": "in vivo, human", "description": "CYT-0387 is a selective small molecule inhibitor of Janus kinase 1 and 2 (JAK1/JAK2) currently under investigation to treat myelofibrosis. This study evaluated the mass balance/recovery, metabolite profile, pharmacokinetics, and safety of radiolabeled CYT-0387 in humans.\nSix healthy individuals (subjects) received a single oral dose of 200 mg CYT-0387 containing ˜100 μCi of [^14C]-CYT-0387. Blood samples were collected up to 21 days or until plasma radioactivity in 2 consecutive samples was below detection limit or urine and feces sampling was discontinued. Urine/feces samples were collected up to 21 days or until ≧90% administered dose was recovered in feces and urine and radioactivity in 2 consecutive sampling intervals were ≦1% administered dose. Plasma concentrations of CYT-0387 and metabolites were measured using LC-MS/MS and total radioactivity assessed by liquid scintillation counting. Metabolite profiling was performed in select urine, feces, and plasma samples. Safety assessments were performed throughout the study."}, "[4]": {"assay": "Stability of 100 mg tablet formulation with different propyl gallate levels", "format": "physicochemical", "conditions": "for Total Degradation: 100 mg tablet, 40° C./75% RH", "description": "Next, the stability of 100 mg tablet formulation comprising CYT-0387 Form II was examined in the presence of 0%, 0.2%, 0.5%, or 1.0% propyl gallate at 25° C./60% RH (relative humidity) or 40° C./75% RH for up to 6 months. The degradation profiles were determined at month 0, 1, 3, and 6."}, "[5]": {"assay": "Solid form hygroscopicity and stability", "format": "physicochemical", "conditions": "conditions suitable for manufacturing and/or storage", "description": "Dynamic Vapor Sorption: The hygroscopicity of N-(cyanomethyl)-4-(2-(4-morpholinophenylamino)pyrimidin-4-yl)benzamide dihydrochloride monohydrate Form II was evaluated at room temperature using a dynamic vapor sorption (DVS) instrument (TGA Q5000 TA Instruments, New Castle, Del.). Water adsorption and desorption were studied as a function of relative humidity (RH) over the range of 0 to 90% at room temperature. The humidity in the chamber was increased from the initial level 50% RH) to 60% RH and held until the solid and atmosphere reached equilibration. The equilibrium test was continued until passed or expired after 10 hours. At this point, RH was raised 10% higher and the process was repeated until 90% RH was reached and equilibrated. During this period, the water sorption was monitored. For desorption, the relative humidity was decreased in a similar manner to measure a full sorption/desorption cycle. All experiments were operated in dm/dt mode (mass variation over time) to determine the equilibration endpoint. Approximately 4 mg of solid CYT-0387 was used. Data analysis was conducted using Universal Analysis 2000 Version 4.7A (TA Instruments, New Castle, Del., USA)."}, "[6]": {"assay": "Phase 1 single dose PK study, Form II tablets vs Form I capsule, healthy subjects", "conditions": "human, in vivo", "description": "Tablets comprising CYT-0387 dihydrochloride monohydrate Form II (doses equivalent to 100, 150, 200, and 300 mg of the free base) and capsules comprising CYT-0387 dihydrochloride anhydrous Form I (dose equivalent to 300 mg of the free base) were evaluated in a Phase 1, single dose study in healthy subjects.\nIntensive PK and PD sampling occurred from 0.5 hour up to 36 hours post dose. Safety was monitored throughout the study. A parametric analysis of variance (ANOVA) using a mixed-effects model was used to fit to the natural logarithmic transformation of PK parameters (AUC and Cmax). The 90% confidence intervals were constructed for the ratio of geometric means of CYT-0387 dihydrochloride monohydrate Form II tablets at 100, 150, 200 and 300 mg vs CYT-0387 dihydrochloride anhydrous Form I capsule at 300 mg, using equivalence bounds of 70% to 143% for AUC and Cmax. The pharmacokinetic data is represented in Table 5."}, "[7]": {"conditions": "single oral dose 200 mg, healthy subjects"}},
  "note": "Counter-ions that a name gives are not always drawn.",
  "data": [
    {"smiles": "N#CCNC(=O)c1ccc(-c2ccnc(Nc3ccc(N4CCOCC4)cc3)n2)cc1", "note": "[CYT-0387, N-(cyanomethyl)-4-(2-(4-morpholinophenylamino)pyrimidin-4-yl)benzamide]", "values": [
      {"measurement": "effect on BMP6-mediated hepcidin induction", "setting": "[1]; 0 μM to 10 μM, HepG2", "result": "dose-dependent inhibition"},
      {"measurement": "hepcidin fold-change induction (normalized percentage)", "setting": "[1]; 0.020 μM", "result": 115, "unit": "%"},
      {"measurement": "hepcidin fold-change induction (normalized percentage)", "setting": "[1]; 0.039 μM", "result": 91, "unit": "%"},
      {"measurement": "hepcidin fold-change induction (normalized percentage)", "setting": "[1]; 0.078 μM", "result": 74, "unit": "%"},
      {"measurement": "hepcidin fold-change induction (normalized percentage)", "setting": "[1]; 0.156 μM", "result": 86, "unit": "%"},
      {"measurement": "hepcidin fold-change induction (normalized percentage)", "setting": "[1]; 0.313 μM", "result": 89, "unit": "%"},
      {"measurement": "hepcidin fold-change induction (normalized percentage)", "setting": "[1]; 0.625 μM", "result": 45, "unit": "%"},
      {"measurement": "hepcidin fold-change induction (normalized percentage)", "setting": "[1]; 1.25 μM", "result": 28, "unit": "%"},
      {"measurement": "hepcidin fold-change induction (normalized percentage)", "setting": "[1]; 2.5 μM", "result": 6, "unit": "%"},
      {"measurement": "hepcidin fold-change induction (normalized percentage)", "setting": "[1]; 5.0 μM", "result": "−4", "unit": "%"},
      {"measurement": "hepcidin fold-change induction (normalized percentage)", "setting": "[1]; 10.0 μM", "result": "−3", "unit": "%"},
      {"measurement": "IC50", "setting": "TGFBR1", "result": 205, "unit": "nM"},
      {"measurement": "efficacy in treating hyperproliferative diseases (PV, ET, PMF)", "setting": "[2]; clinical studies", "result": "effective"},
      {"measurement": "anemia and/or spleen responses", "setting": "[2]; patients having myelofibrosis", "result": "improvement"},
      {"measurement": "Kd", "setting": "ALK6 (BMPR1B)", "result": 19, "unit": "nM"},
      {"measurement": "excreted in feces", "setting": "[3]; feces", "result": "12.6 % of the dose"},
      {"measurement": "recovery of radioactivity in feces", "setting": "[3]; feces", "result": 69.3, "unit": "%"},
      {"measurement": "overall recovery of radioactivity", "setting": "[3]; feces and urine", "result": 96.7, "unit": "%"},
      {"measurement": "share of circulating radioactivity", "setting": "[3]; plasma", "result": 17.3, "unit": "%"},
      {"measurement": "time of maximum concentration of drug-derived radioactivity in plasma", "setting": "[3]; postdose, single oral 200 mg [14C]-CYT-0387", "result": 2.5, "unit": "h"},
      {"measurement": "most frequently reported AEs", "setting": "[3]; [7]", "result": "dizziness, headache, and nausea"},
      {"measurement": "serious or severe adverse events", "setting": "[3]; [7]", "result": "No Grade 3 or 4 AEs, SAEs, or AEs leading to study discontinuation"},
      {"measurement": "tolerability", "setting": "[3]; [7]", "result": "well tolerated"},
      {"measurement": "recovery of radioactivity in urine", "setting": "[3]; urine", "result": 27.5, "unit": "%"}
    ]},
    {"smiles": "N#CCNC(=O)c1ccc(-c2ccnc(Nc3ccc(N4CCOCC4)cc3)n2)cc1", "note": "[CYT-0387 Form II, N-(cyanomethyl)-4-(2-(4-morpholinophenylamino)pyrimidin-4-yl)benzamide dihydrochloride monohydrate Form II]", "values": [
      {"measurement": "Total Degradation", "setting": "[4]; propyl gallate 0%, month 0", "result": 0.10, "unit": "%"},
      {"measurement": "Total Degradation", "setting": "[4]; propyl gallate 0%, month 1", "result": 0.68, "unit": "%"},
      {"measurement": "Total Degradation", "setting": "[4]; propyl gallate 0%, month 3", "result": 1.01, "unit": "%"},
      {"measurement": "Total Degradation", "setting": "[4]; propyl gallate 0%, month 6", "result": 1.28, "unit": "%"},
      {"measurement": "Total Degradation", "setting": "[4]; propyl gallate 0.2%, month 0", "result": 0.10, "unit": "%"},
      {"measurement": "Total Degradation", "setting": "[4]; propyl gallate 0.2%, month 1", "result": 0.34, "unit": "%"},
      {"measurement": "Total Degradation", "setting": "[4]; propyl gallate 0.2%, month 3", "result": 0.67, "unit": "%"},
      {"measurement": "Total Degradation", "setting": "[4]; propyl gallate 0.2%, month 6", "result": 0.80, "unit": "%"},
      {"measurement": "Total Degradation", "setting": "[4]; propyl gallate 0.5%, month 0", "result": 0.11, "unit": "%"},
      {"measurement": "Total Degradation", "setting": "[4]; propyl gallate 0.5%, month 1", "result": 0.39, "unit": "%"},
      {"measurement": "Total Degradation", "setting": "[4]; propyl gallate 0.5%, month 3", "result": 0.67, "unit": "%"},
      {"measurement": "Total Degradation", "setting": "[4]; propyl gallate 0.5%, month 6", "result": 0.95, "unit": "%"},
      {"measurement": "Total Degradation", "setting": "[4]; propyl gallate 1.0%, month 0", "result": 0.14, "unit": "%"},
      {"measurement": "Total Degradation", "setting": "[4]; propyl gallate 1.0%, month 1", "result": 0.44, "unit": "%"},
      {"measurement": "Total Degradation", "setting": "[4]; propyl gallate 1.0%, month 3", "result": 0.87, "unit": "%"},
      {"measurement": "Total Degradation", "setting": "[4]; propyl gallate 1.0%, month 6", "result": 1.34, "unit": "%"},
      {"measurement": "degradation in 100 mg tablet", "setting": "[4]; 25° C./60% RH, propyl gallate at 0.2%, 0.5%, and 1.0% (data not shown)", "result": "reduced"},
      {"measurement": "thermodynamic stability of the dihydrochloride salt form", "setting": "[5]", "result": "thermodynamically stable form"},
      {"measurement": "bioavailability compared to CYT-0387 dihydrochloride anhydrous Form I and CYT-0387 free base", "setting": "[6]", "result": "increased bioavailability"}
    ]}
  ]
}
